In patent publication US20240059740A1, “CYCLIC PEPTIDES AND USES THEREOF” (PRE[…] INC., priority 2020, published 2024):
Residues, ends and D or L forms follow the SMILES beside them.

Assays:
[1] = test system: U87 cells; assay: MTT assay for cytotoxicity, U87; type: cell-based, human; conditions: 48 hours, % viability of control
Text: The MTT (3-[4.5-dimethylthiazol-2-yl]-2,5═diphenyl tetrazolium bromide) assay is based on a process undertaken by living cells, involving the conversion of MTT into formazan crystals. This assay is used routinely to measure the in vitro cytotoxic effects of drugs on cell lines or primary patient cells (Van Meerloo et al., 2011). The MTT assay measures mitochondrial activity, so in some instances where the peptide activates mitochondrial response, the results appear to increase the number of cells present i.e. >100% cell viability.
The aim of this experiment was to identify peptide concentrations that are active on living cells and cell viability was assessed.
The glioblastoma multiforme (GBM) cell lines used were U87 and U251 cells and patient derived cells grown as oncospheres (081024 cells). Human adherent GBM cell lines U87 and U251 were cultured in RPMI medium (Life Technologies Melbourne Australia) supplemented with 5% v/v FBS, 100 U/mL penicillin and 100 μg/mL streptomycin. 081024 cells were cultrured in NeuroCult™ NS-A Proliferation medium with 0.2% (v/v) heparin, 20 ng/mL EGF and 10 ng/mL FGF.
8×10^3 U87 and 7×10^3 U251 cells per well were seeded in 96 well plates in 200 μL serum-containing RPMI medium and incubated at 37° C. with 5% CO2 for 24 hours. After one wash with serum-free medium, 100 μL serum-free medium with different concentration of peptide SEQ ID NO:1 was added to each well. After 48 hours incubation, 10 μL of 0.5 mg/mL MTT was added and incubated for 2 hours at 37° C. Formazan crystals were dissolved by 200 μL/well dimethyl sulfoxide (DMSO) and shaking for 15 minutes. The UV absorbance was read with an iMark™ microplate absorbance reader at 595 nm (Bio-Rad Laboratories). Background absorbance was subtracted and results expressed as the % viability of control (untreated cells).

[2] = test system: U87 cells; assay: BME cell invasion assay, U87; type: cell-based, human; conditions: 24 h
Protocol: To assess whether the ability of SEQ ID NO.1 to inhibit MMP-2 activity and, to a lesser extent, reduce the production of matrix proteinases and downregulate the expression of EMT markers, was of functional consequence in reducing the invasiveness of the GBM cells, the ability of the peptide was tested at the concentrations of 1, 10 and 100 μM (none of which are toxic to cells) to inhibit invasion of the GBM cells through a basement membrane. This assay, described in more detail below, is an in vitro surrogate for measurement of the in vivo invasion by tumour cells of their environment.
The cell invasion assay employs a simplified Boyden chamber-like design that consists of two chambers separated by a filter (an 8 μm polycarbonate (PC) membrane) coated with basement membrane or different extracellular matrix components. The cell suspension is placed in the top chamber and incubated in the presence of test media containing specific chemo-attractants in the bottom chamber. Cells migrate from the top chamber to the bottom of the filter by degrading the coating over the filter pores. Detection of cell invasion is quantified using Calcein AM. Cell dissociation/Calcein AM solution is placed in the bottom chamber to dissociate the migrating cells from the filter. Calcein AM is internalized by the cells, and intracellular-esterases cleave the aceto-methylester (AM) moiety. Free Calcein fluoresces brightly and is used to quantitate the number of cells that have invaded or migrated by comparison with a standard curve (In Vitro Technologies Pty Ltd, (https://lifescience.invitro.com.au/brands/r-and-d-systems/).
The filter was coated with PathClear® growth factor reduced BME. The selected peptides were applied to the cells in both upper and lower wells to make sure the concentration of peptides were the same and the chemoattractant was serum at a concentration of 2% (for adherent U87 & U251 cells) or growth factor mix required in the medium (for non- adherent, 081024 oncospheres).
Cell invasion was determined using CultureCoat® 96 Well Medium BME Cell Invasion assay. Briefly, the cells were pre-starved 24 h before harvest. Then seeding 25,000 per well of cell in the upper chamber with serum free medium together different concentration of peptide. The bottom chamber also added different concentration of peptides with 2% (V/V) serum for GBM adherent cells or growth factor mix for neurosphere cells as chemoattractant. After 24 h incubation, the invading cells were measured by Calcein AM and calculated based on standard curve.
The results are shown in Table 12, the results are expressed as % inhibition.

## CC(C)C[C@@H]1NC(=O)[C@H](C)NC(=O)[C@@H](NC(=O)[C@@H]2CCCN2C(=O)[C@@H](N)CC(C)C)CSSC(C)(C)CNC(=O)CC[C@@H](C(=O)N[C@@H](CCCNC(=N)N)C(N)=O)NC(=O)[C@H](CC(=O)O)NC(=O)[C@H](CC(N)=O)NC1=O [SEQ ID NO: 1, Leu-Pro-c(SSA*-Ala-Leu-Asn-Asp-Glu)-Arg-NH2] (HELM PEPTIDE1{L.P.C.A.L.N.D.E.R.[am]}|CHEM1{[CC(C)(CN[*:2])S[*:1]]}$PEPTIDE1,CHEM1,3:R3-1:R1|PEPTIDE1,CHEM1,8:R3-1:R2$$$V2.0; N-terminus assumed)
[1]; 1 μM
  Cell viability: 96.34%
[1]; 5 μM
  Cell viability: 102.4%
[1]; 10 μM
  Cell viability: 100.1%
[1]; 50 μM
  Cell viability: 98.71%
[1]; 100 μM
  Cell viability: 102.8%
[1]; 500 μM
  Cell viability: 96.94%
[1]; 1 mM
  Cell viability: 83.41%
[2]; 1 μM, listed as SEQ ID NO. 1
  Invasion Inhibition Index (%): 7.6%
[2]; 1 μM, listed as SEQ ID NO.1
  Invasion Inhibition Index (%): lower inhibition index compared to Chlorotoxin
[2]; 10 μM
  Invasion Inhibition Index (%): 15.5%
[2]; 100 μM
  Invasion Inhibition Index (%): 24.3%
